Source: the NIST ThermoML archive (doi:10.1021/acs.jced.6b00121)

Experiment: xn = mol fraction of the nth substance listed
Conditions: 100 kPa, Liquid; for viscosity: Falling or rolling sphere viscometry; for mass density: Vibrating tube method

CCCCCCCCCCC [undecane] + CCCCCCO
Conditions | mass density [kg/m3] | viscosity [mPa·s]
283.15 K, x1 = 0.1011 | 812.86 | 5.655
283.15 K, x1 = 0.1989 | 802.1 | 4.274
283.15 K, x1 = 0.2998 | 792.19 | 3.34
283.15 K, x1 = 0.4001 | 783.5 | 2.615
283.15 K, x1 = 0.4994 | 775.87 | 2.198
283.15 K, x1 = 0.6004 | 768.89 | 1.95
283.15 K, x1 = 0.6989 | 762.82 | 1.72
283.15 K, x1 = 0.8001 | 757.18 | 1.564
283.15 K, x1 = 0.8991 | 752.28 | 1.455
283.15 K, x1 = 1 | 747.78 | 1.371
288.15 K, x1 = 0.1011 | 809.29 | 4.784
288.15 K, x1 = 0.1989 | 798.49 | 3.651
288.15 K, x1 = 0.2998 | 788.53 | 2.88
288.15 K, x1 = 0.4001 | 779.81 | 2.322
288.15 K, x1 = 0.4994 | 772.18 | 2.019
288.15 K, x1 = 0.6004 | 765.18 | 1.752
288.15 K, x1 = 0.6989 | 759.1 | 1.554
288.15 K, x1 = 0.8001 | 753.47 | 1.419
288.15 K, x1 = 0.8991 | 748.57 | 1.329
288.15 K, x1 = 1 | 744.06 | 1.249
293.15 K, x1 = 0.1011 | 805.71 | 4.073
293.15 K, x1 = 0.1989 | 794.85 | 3.136
293.15 K, x1 = 0.2998 | 784.85 | 2.505
293.15 K, x1 = 0.4001 | 776.12 | 2.118
293.15 K, x1 = 0.4994 | 768.47 | 1.808
293.15 K, x1 = 0.6004 | 761.46 | 1.58
293.15 K, x1 = 0.6989 | 755.38 | 1.41
293.15 K, x1 = 0.8001 | 749.75 | 1.293
293.15 K, x1 = 0.8991 | 744.85 | 1.218
293.15 K, x1 = 1 | 740.35 | 1.145
298.15 K, x1 = 0.1011 | 802.1 | 3.494
298.15 K, x1 = 0.1989 | 791.2 | 2.719
298.15 K, x1 = 0.2998 | 781.16 | 2.198
298.15 K, x1 = 0.4001 | 772.4 | 1.886
298.15 K, x1 = 0.4994 | 764.75 | 1.626
298.15 K, x1 = 0.6004 | 757.73 | 1.432
298.15 K, x1 = 0.6989 | 751.65 | 1.284
298.15 K, x1 = 0.8001 | 746.02 | 1.182
298.15 K, x1 = 0.8991 | 741.12 | 1.116
298.15 K, x1 = 1 | 736.64 | 1.062
303.15 K, x1 = 0.1011 | 798.47 | 3.016
303.15 K, x1 = 0.1989 | 787.52 | 2.374
303.15 K, x1 = 0.2998 | 777.45 | 1.952
303.15 K, x1 = 0.4001 | 768.67 | 1.687
303.15 K, x1 = 0.4994 | 761.01 | 1.47
303.15 K, x1 = 0.6004 | 753.98 | 1.305
303.15 K, x1 = 0.6989 | 747.89 | 1.176
303.15 K, x1 = 0.8001 | 742.27 | 1.09
303.15 K, x1 = 0.8991 | 737.38 | 1.031
303.15 K, x1 = 1 | 732.93 | 0.982
308.15 K, x1 = 0.1011 | 794.81 | 2.62
308.15 K, x1 = 0.1989 | 783.82 | 2.09
308.15 K, x1 = 0.2998 | 773.71 | 1.746
308.15 K, x1 = 0.4001 | 764.91 | 1.517
308.15 K, x1 = 0.4994 | 757.24 | 1.334
308.15 K, x1 = 0.6004 | 750.21 | 1.193
308.15 K, x1 = 0.6989 | 744.12 | 1.08
308.15 K, x1 = 0.8001 | 738.5 | 1.002
308.15 K, x1 = 0.8991 | 733.62 | 0.954
308.15 K, x1 = 1 | 729.23 | 0.91
313.15 K, x1 = 0.1011 | 791.12 | 2.29
313.15 K, x1 = 0.1989 | 780.08 | 1.857
313.15 K, x1 = 0.2998 | 769.94 | 1.574
313.15 K, x1 = 0.4001 | 761.13 | 1.372
313.15 K, x1 = 0.4994 | 753.45 | 1.226
313.15 K, x1 = 0.6004 | 746.41 | 1.106
313.15 K, x1 = 0.6989 | 740.32 | 0.996
313.15 K, x1 = 0.8001 | 734.71 | 0.927
313.15 K, x1 = 0.8991 | 729.84 | 0.886
313.15 K, x1 = 1 | 725.53 | 0.847
318.15 K, x1 = 0.1011 | 787.39 | 2.02
318.15 K, x1 = 0.1989 | 776.31 | 1.664
318.15 K, x1 = 0.2998 | 766.14 | 1.437
318.15 K, x1 = 0.4001 | 757.31 | 1.245
318.15 K, x1 = 0.4994 | 749.63 | 1.1
318.15 K, x1 = 0.6004 | 742.59 | 1.008
318.15 K, x1 = 0.6989 | 736.5 | 0.921
318.15 K, x1 = 0.8001 | 730.9 | 0.861
318.15 K, x1 = 0.8991 | 726.05 | 0.822
318.15 K, x1 = 1 | 721.82 | 0.79
323.15 K, x1 = 0.1011 | 783.63 | 1.799
323.15 K, x1 = 0.1989 | 772.51 | 1.528
323.15 K, x1 = 0.2998 | 762.31 | 1.301
323.15 K, x1 = 0.4001 | 753.47 | 1.136
323.15 K, x1 = 0.4994 | 745.77 | 1.011
323.15 K, x1 = 0.6004 | 738.74 | 0.931
323.15 K, x1 = 0.6989 | 732.65 | 0.853
323.15 K, x1 = 0.8001 | 727.06 | 0.801
323.15 K, x1 = 0.8991 | 722.24 | 0.773
323.15 K, x1 = 1 | 718.11 | 0.74
328.15 K, x1 = 0.1011 | 779.82 | 1.612
328.15 K, x1 = 0.1989 | 768.66 | 1.374
328.15 K, x1 = 0.2998 | 758.44 | 1.18
328.15 K, x1 = 0.4001 | 749.58 | 1.039
328.15 K, x1 = 0.4994 | 741.89 | 0.93
328.15 K, x1 = 0.6004 | 734.86 | 0.862
328.15 K, x1 = 0.6989 | 728.77 | 0.793
328.15 K, x1 = 0.8001 | 723.2 | 0.747
328.15 K, x1 = 0.8991 | 718.41 | 0.724
328.15 K, x1 = 1 | 714.39 | 0.692
333.15 K, x1 = 0.1011 | 775.97 | 1.466
333.15 K, x1 = 0.1989 | 764.78 | 1.24
333.15 K, x1 = 0.2998 | 754.53 | 1.073
333.15 K, x1 = 0.4001 | 745.66 | 0.955
333.15 K, x1 = 0.4994 | 737.97 | 0.859
333.15 K, x1 = 0.6004 | 730.93 | 0.801
333.15 K, x1 = 0.6989 | 724.87 | 0.738
333.15 K, x1 = 0.8001 | 719.31 | 0.699
333.15 K, x1 = 0.8991 | 714.55 | 0.681
333.15 K, x1 = 1 | 710.68 | 0.651
338.15 K, x1 = 0.1011 | 772.08 | 1.318
338.15 K, x1 = 0.1989 | 760.84 | 1.124
338.15 K, x1 = 0.2998 | 750.57 | 0.982
338.15 K, x1 = 0.4001 | 741.7 | 0.878
338.15 K, x1 = 0.4994 | 734.01 | 0.796
338.15 K, x1 = 0.6004 | 726.99 | 0.744
338.15 K, x1 = 0.6989 | 720.93 | 0.691
338.15 K, x1 = 0.8001 | 715.39 | 0.656
338.15 K, x1 = 0.8991 | 710.68 | 0.641
338.15 K, x1 = 1 | 706.95 | 0.615
343.15 K, x1 = 0.1011 | 768.13 | 1.189
343.15 K, x1 = 0.1989 | 756.86 | 1.025
343.15 K, x1 = 0.2998 | 746.58 | 0.901
343.15 K, x1 = 0.4001 | 737.7 | 0.811
343.15 K, x1 = 0.4994 | 730.01 | 0.739
343.15 K, x1 = 0.6004 | 723 | 0.695
343.15 K, x1 = 0.6989 | 716.95 | 0.647
343.15 K, x1 = 0.8001 | 711.44 | 0.616
343.15 K, x1 = 0.8991 | 706.79 | 0.604
343.15 K, x1 = 1 | 703.22 | 0.58
348.15 K, x1 = 0.1011 | 764.12 | 1.054
348.15 K, x1 = 0.1989 | 752.83 | 0.934
348.15 K, x1 = 0.2998 | 742.54 | 0.828
348.15 K, x1 = 0.4001 | 733.66 | 0.75
348.15 K, x1 = 0.4994 | 725.98 | 0.687
348.15 K, x1 = 0.6004 | 718.97 | 0.652
348.15 K, x1 = 0.6989 | 712.94 | 0.607
348.15 K, x1 = 0.8001 | 707.47 | 0.58
348.15 K, x1 = 0.8991 | 702.87 | 0.571
348.15 K, x1 = 1 | 699.47 | 0.549
353.15 K, x1 = 0.1011 | 760.07 | 0.981
353.15 K, x1 = 0.1989 | 748.76 | 0.855
353.15 K, x1 = 0.2998 | 738.45 | 0.765
353.15 K, x1 = 0.4001 | 729.57 | 0.696
353.15 K, x1 = 0.4994 | 721.9 | 0.642
353.15 K, x1 = 0.6004 | 714.9 | 0.611
353.15 K, x1 = 0.6989 | 708.9 | 0.572
353.15 K, x1 = 0.8001 | 703.47 | 0.546
353.15 K, x1 = 0.8991 | 698.94 | 0.54
353.15 K, x1 = 1 | 695.72 | 0.522
358.15 K, x1 = 0.1011 | 755.96 | 0.895
358.15 K, x1 = 0.1989 | 744.62 | 0.787
358.15 K, x1 = 0.2998 | 734.31 | 0.707
358.15 K, x1 = 0.4001 | 725.43 | 0.649
358.15 K, x1 = 0.4994 | 717.76 | 0.6
358.15 K, x1 = 0.6004 | 710.79 | 0.573
358.15 K, x1 = 0.6989 | 704.82 | 0.54
358.15 K, x1 = 0.8001 | 699.43 | 0.516
358.15 K, x1 = 0.8991 | 694.99 | 0.512
358.15 K, x1 = 1 | 691.96 | 0.497
363.15 K, x1 = 0.1011 | 751.78 | 0.82
363.15 K, x1 = 0.1989 | 740.43 | 0.726
363.15 K, x1 = 0.2998 | 730.12 | 0.657
363.15 K, x1 = 0.4001 | 721.24 | 0.605
363.15 K, x1 = 0.4994 | 713.59 | 0.562
363.15 K, x1 = 0.6004 | 706.64 | 0.54
363.15 K, x1 = 0.6989 | 700.7 | 0.512
363.15 K, x1 = 0.8001 | 695.37 | 0.49
363.15 K, x1 = 0.8991 | 691.02 | 0.487
363.15 K, x1 = 1 | 688.18 | 0.475
